According to patent US4314999A, “N-Acyl derivatives of glucosamine having antitumor chemotherapeutic acitivity” (Proter S.p.A., priority 1980, dated 1982):

Tested on: Leukemia L 1210
Test: Survival (MST, ILS, T/C%) of mice inoculated i.p. with Leukemia L 1210, compound given orally
Format: in vivo
Design: Increase in Life Span (ILS): unit not given here
Conditions: for Survivors: of 10 mice
Protocol: The chemotherapeutic activity of the compound ethyl-D-glucosamyl-L-aspartoyl(β-ethoxy)-D-glucosamyl)m-di(2-chloroethylamino)-L-phenylalanyl-p-fluoro-L-phenylalanine was evaluated by conducting trials on mice injected with cells of Leukemia 1210 according to the procedure established in Cancer Chemotherapy Reports 1972, Vol. 3, No. 2: Protocols for Screening Chemical Agents and Natural Products Against Animal Tumors and other Biological Systems (Third Edition, National Cancer Institute, Bethesda, Maryland. The experimental model employed for the evaluation is:
Determination of the MST (Mean Survival Time) of BDGI mice inoculated intraperitoneally with 10^5 cells of lymphoid Leukenia L 1210 deriving from regular implants in DBA2 mice. The MST was determined both on the controls and on the animals treated, and thereafter an evaluation was made of the ILS (Increased Life Span) according to Cancer Chemotherapy Reports 1972, Vol. 3, No. 2 (Protocols for Screening Chemical Agents and Natural Products Against Animal Tumors and other Biological Systems--Third Edition, National Cancer Institute, Bethesda, Maryland). In this case, the compounds were tested only after oral administration starting from the 3rd day after implant of the tumor and continuing on the 17th, 25th and 35th day. On the 52nd day, any surviving animals were sacrificed and the experiment discontinued and evaluated.
The formula for the calculation of mean survival time is: [formula] wherein Day A=Day on which deaths are no longer considered due to drug toxicity - For Leukemia L 1210 day A=day 6
Day B=This day cannot be considered here because all control animals died within the 11th day and survivors were not observed.
S=The total of survivors from 6th day onwards
S(A-1)=Number of survivors at the end of day 5 (A-1)=S5
The ILS and the ratio T/C% are calcuated as follows: […]

[1] = Table, oral 25, 15, 10, 5 mg/Kg on days 3, 17, 25, 35, L 1210 mice

Substance: Ethyl-D-glucosamyl-L-aspartoyl(β-ethoxy)-D-glucosamyl-m-di-(2-chloroethyl)amino-L-phenylalanyl-p-fluoro-phenylalanine
- I.L.S. [1]: 186.4
- M.S.T. [1]: 32.7
- T/C % [1]: 311.4%
- Survivors (day 3 from inoculum, oral 25 mg/Kg given this day): 10
- Survivors (day 4 from inoculum): 10
- Survivors (day 5 from inoculum): 10
- Survivors (day 6 from inoculum): 10
- Survivors (day 7 from inoculum): 10
- Survivors (day 8 from inoculum): 10
- Survivors (day 9 from inoculum): 10
- Survivors (day 10 from inoculum): 10
- Survivors (day 11 from inoculum): 10
- Survivors (day 12 from inoculum): 10
- Survivors (day 13 from inoculum): 10
- Survivors (day 14 from inoculum): 10
- Survivors (day 15 from inoculum): 10
- Survivors (day 16 from inoculum): 10
- Survivors (day 17 from inoculum, oral 15 mg/Kg given this day): 10
- Survivors (day 18 from inoculum): 10
- Survivors (day 19 from inoculum): 8
- Survivors (day 20 from inoculum): 8
- Survivors (day 21 from inoculum): 6
- Survivors (day 22 from inoculum): 6
- Survivors (day 23 from inoculum): 6
- Survivors (day 24 from inoculum): 6
- Survivors (day 25 from inoculum, oral 10 mg/Kg given this day): 6
- Survivors (day 26 from inoculum): 6
- Survivors (day 27 from inoculum): 6
- Survivors (day 28 from inoculum): 6
- Survivors (day 29 from inoculum): 6
- Survivors (day 30 from inoculum): 5
- Survivors (day 31 from inoculum): 5
- Survivors (day 32 from inoculum): 5
- Survivors (day 33 from inoculum): 5
- Survivors (day 34 from inoculum): 4
- Survivors (day 35 from inoculum, oral 5 mg/Kg given this day): 4
- Survivors (day 36 from inoculum): 4
- Survivors (day 37 from inoculum): 4
- Survivors (day 38 from inoculum): 4
- Survivors (day 39 from inoculum): 4
- Survivors (day 40 from inoculum): 3
- Survivors (day 41 from inoculum): 3
- Survivors (day 42 from inoculum): 2
- Survivors (day 43 from inoculum): 2
- Survivors (day 44 from inoculum): 2
- Survivors (day 45 from inoculum): 2
- Survivors (day 46 from inoculum): 2
- Survivors (day 47 from inoculum): 2
- Survivors (day 48 from inoculum): 2
- Survivors (day 49 from inoculum): 1
- Survivors (day 50 from inoculum): 1
- Survivors (day 51 from inoculum): 1
- Survivors (day 52 from inoculum): 0
- Mean Survival Time (MST) (ten mice, 10^5 L 1210 cells i.p., oral 25, 15, 10, 5 mg/kg on days 3, 17, 25, 35): 32.7 days
- Increase in Life Span (ILS) (ten mice, 10^5 L 1210 cells i.p., oral 25, 15, 10, 5 mg/kg on days 3, 17, 25, 35, calculated as 311.4-125): 186.4
- T/C% (MST of the treated group divided by the MST of the control group) (ten mice, 10^5 L 1210 cells i.p., oral 25, 15, 10, 5 mg/kg on days 3, 17, 25, 35, control MST 10.5): 311.4%
